Assay results as given in PMC6199744, “Development of Chemical Proteomics for the Folateome and Analysis of the Kinetoplastid Folateome” (ACS Infectious Diseases, 2018).
Where two headings read alike, the source gives them in different places.

How the values were obtained:
Type in all cases: binding
[1] = target: T1, HeLa cell extract proteins (Homo sapiens, UniProt O94822)
T1 construct: endogenous in cells; host or cells: HeLa cell extract

[2] = target: T2, HeLa cell extract proteins (Homo sapiens, UniProt O95714)
T2 construct: endogenous in cells; host or cells: HeLa cell extract

[3] = target: T3, HeLa cell extract proteins (Homo sapiens, UniProt P15559)
T3 construct: endogenous in cells; host or cells: HeLa cell extract

[4] = target: T4, HeLa cell extract proteins (Homo sapiens, UniProt P30041)
T4 construct: endogenous in cells; host or cells: HeLa cell extract
T4 sequence (P30041 1-224): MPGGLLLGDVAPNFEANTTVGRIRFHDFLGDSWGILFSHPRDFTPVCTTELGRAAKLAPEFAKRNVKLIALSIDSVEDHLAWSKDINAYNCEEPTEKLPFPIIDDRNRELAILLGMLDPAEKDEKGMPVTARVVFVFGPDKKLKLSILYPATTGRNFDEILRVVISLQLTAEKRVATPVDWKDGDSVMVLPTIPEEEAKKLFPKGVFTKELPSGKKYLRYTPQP

[5] = target: T5, HeLa cell extract proteins (Homo sapiens, UniProt P30153)
T5 construct: endogenous in cells; host or cells: HeLa cell extract

[6] = target: T6, HeLa cell extract proteins (Homo sapiens, UniProt P31930)
T6 construct: endogenous in cells; host or cells: HeLa cell extract
T6 sequence (P31930 35-480): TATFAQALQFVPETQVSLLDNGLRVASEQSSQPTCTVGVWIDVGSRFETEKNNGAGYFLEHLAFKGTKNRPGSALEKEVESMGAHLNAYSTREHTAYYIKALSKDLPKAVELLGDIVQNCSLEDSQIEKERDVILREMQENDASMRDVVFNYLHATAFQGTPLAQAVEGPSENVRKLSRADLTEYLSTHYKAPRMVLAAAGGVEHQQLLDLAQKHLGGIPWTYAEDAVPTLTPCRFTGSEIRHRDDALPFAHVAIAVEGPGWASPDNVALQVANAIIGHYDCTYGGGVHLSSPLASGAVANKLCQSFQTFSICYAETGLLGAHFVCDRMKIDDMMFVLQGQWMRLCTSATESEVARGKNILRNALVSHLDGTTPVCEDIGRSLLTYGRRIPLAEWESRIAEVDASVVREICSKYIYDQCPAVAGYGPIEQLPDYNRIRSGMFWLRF

[7] = target: T7, HeLa cell extract proteins (Homo sapiens, UniProt P31949)
T7 construct: endogenous in cells; host or cells: HeLa cell extract
T7 sequence (P31949 1-105): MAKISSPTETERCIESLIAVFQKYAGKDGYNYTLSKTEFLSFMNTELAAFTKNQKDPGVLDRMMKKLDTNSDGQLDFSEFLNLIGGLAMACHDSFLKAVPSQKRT

[8] = target: T8, HeLa cell extract proteins (Homo sapiens, UniProt P49720)
T8 construct: endogenous in cells; host or cells: HeLa cell extract
T8 sequence (P49720 1-205): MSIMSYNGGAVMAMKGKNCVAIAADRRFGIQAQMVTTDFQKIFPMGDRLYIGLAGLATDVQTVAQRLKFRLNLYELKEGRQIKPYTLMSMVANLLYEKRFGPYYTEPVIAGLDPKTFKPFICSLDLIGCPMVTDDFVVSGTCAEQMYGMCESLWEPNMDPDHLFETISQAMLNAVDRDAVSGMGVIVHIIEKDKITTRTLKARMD

[9] = target: T9, HeLa cell extract proteins (Homo sapiens, UniProt Q16891)
T9 construct: endogenous in cells; host or cells: HeLa cell extract
T9 sequence (Q16891 34-758): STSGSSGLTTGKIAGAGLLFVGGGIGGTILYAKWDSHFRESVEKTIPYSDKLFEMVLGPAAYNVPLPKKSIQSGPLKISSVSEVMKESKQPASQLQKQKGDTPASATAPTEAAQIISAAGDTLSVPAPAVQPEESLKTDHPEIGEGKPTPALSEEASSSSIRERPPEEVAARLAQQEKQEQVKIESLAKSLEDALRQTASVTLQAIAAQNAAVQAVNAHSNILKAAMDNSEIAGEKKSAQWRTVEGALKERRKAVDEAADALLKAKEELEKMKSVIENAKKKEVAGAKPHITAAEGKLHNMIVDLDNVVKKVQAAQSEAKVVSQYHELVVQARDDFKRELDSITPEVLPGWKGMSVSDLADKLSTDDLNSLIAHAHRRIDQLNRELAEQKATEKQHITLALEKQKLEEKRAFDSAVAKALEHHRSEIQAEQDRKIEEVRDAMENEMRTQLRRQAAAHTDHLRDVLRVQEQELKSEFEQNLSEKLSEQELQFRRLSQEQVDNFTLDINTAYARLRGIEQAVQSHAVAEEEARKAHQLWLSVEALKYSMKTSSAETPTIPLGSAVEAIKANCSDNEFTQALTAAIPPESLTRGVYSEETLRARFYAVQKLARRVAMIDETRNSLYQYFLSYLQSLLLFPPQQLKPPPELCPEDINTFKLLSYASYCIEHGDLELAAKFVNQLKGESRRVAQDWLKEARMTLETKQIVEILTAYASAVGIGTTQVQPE

[10] = target: T10, HeLa cell extract proteins (Homo sapiens, UniProt Q9BT22)
T10 construct: endogenous in cells; host or cells: HeLa cell extract
T10 sequence (Q9BT22 1-464): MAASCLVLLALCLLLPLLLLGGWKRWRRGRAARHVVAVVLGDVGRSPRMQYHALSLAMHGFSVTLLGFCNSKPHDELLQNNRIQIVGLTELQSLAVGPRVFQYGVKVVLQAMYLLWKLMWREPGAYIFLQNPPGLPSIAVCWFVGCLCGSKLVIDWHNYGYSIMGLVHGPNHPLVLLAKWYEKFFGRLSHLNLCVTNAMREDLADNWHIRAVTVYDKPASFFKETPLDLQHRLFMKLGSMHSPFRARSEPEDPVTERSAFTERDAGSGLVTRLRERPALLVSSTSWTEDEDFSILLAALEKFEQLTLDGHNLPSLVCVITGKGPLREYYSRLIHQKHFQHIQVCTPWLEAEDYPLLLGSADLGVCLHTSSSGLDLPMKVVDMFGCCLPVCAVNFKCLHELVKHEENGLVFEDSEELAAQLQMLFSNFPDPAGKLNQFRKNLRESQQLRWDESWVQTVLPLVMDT

[11] = HeLa, protein PRDX6 (PEROXIREDOXIN-6.)
[12] = HeLa, protein S100A11 (PROTEIN S100-A11.)

T2 sequence (O95714 whole entry): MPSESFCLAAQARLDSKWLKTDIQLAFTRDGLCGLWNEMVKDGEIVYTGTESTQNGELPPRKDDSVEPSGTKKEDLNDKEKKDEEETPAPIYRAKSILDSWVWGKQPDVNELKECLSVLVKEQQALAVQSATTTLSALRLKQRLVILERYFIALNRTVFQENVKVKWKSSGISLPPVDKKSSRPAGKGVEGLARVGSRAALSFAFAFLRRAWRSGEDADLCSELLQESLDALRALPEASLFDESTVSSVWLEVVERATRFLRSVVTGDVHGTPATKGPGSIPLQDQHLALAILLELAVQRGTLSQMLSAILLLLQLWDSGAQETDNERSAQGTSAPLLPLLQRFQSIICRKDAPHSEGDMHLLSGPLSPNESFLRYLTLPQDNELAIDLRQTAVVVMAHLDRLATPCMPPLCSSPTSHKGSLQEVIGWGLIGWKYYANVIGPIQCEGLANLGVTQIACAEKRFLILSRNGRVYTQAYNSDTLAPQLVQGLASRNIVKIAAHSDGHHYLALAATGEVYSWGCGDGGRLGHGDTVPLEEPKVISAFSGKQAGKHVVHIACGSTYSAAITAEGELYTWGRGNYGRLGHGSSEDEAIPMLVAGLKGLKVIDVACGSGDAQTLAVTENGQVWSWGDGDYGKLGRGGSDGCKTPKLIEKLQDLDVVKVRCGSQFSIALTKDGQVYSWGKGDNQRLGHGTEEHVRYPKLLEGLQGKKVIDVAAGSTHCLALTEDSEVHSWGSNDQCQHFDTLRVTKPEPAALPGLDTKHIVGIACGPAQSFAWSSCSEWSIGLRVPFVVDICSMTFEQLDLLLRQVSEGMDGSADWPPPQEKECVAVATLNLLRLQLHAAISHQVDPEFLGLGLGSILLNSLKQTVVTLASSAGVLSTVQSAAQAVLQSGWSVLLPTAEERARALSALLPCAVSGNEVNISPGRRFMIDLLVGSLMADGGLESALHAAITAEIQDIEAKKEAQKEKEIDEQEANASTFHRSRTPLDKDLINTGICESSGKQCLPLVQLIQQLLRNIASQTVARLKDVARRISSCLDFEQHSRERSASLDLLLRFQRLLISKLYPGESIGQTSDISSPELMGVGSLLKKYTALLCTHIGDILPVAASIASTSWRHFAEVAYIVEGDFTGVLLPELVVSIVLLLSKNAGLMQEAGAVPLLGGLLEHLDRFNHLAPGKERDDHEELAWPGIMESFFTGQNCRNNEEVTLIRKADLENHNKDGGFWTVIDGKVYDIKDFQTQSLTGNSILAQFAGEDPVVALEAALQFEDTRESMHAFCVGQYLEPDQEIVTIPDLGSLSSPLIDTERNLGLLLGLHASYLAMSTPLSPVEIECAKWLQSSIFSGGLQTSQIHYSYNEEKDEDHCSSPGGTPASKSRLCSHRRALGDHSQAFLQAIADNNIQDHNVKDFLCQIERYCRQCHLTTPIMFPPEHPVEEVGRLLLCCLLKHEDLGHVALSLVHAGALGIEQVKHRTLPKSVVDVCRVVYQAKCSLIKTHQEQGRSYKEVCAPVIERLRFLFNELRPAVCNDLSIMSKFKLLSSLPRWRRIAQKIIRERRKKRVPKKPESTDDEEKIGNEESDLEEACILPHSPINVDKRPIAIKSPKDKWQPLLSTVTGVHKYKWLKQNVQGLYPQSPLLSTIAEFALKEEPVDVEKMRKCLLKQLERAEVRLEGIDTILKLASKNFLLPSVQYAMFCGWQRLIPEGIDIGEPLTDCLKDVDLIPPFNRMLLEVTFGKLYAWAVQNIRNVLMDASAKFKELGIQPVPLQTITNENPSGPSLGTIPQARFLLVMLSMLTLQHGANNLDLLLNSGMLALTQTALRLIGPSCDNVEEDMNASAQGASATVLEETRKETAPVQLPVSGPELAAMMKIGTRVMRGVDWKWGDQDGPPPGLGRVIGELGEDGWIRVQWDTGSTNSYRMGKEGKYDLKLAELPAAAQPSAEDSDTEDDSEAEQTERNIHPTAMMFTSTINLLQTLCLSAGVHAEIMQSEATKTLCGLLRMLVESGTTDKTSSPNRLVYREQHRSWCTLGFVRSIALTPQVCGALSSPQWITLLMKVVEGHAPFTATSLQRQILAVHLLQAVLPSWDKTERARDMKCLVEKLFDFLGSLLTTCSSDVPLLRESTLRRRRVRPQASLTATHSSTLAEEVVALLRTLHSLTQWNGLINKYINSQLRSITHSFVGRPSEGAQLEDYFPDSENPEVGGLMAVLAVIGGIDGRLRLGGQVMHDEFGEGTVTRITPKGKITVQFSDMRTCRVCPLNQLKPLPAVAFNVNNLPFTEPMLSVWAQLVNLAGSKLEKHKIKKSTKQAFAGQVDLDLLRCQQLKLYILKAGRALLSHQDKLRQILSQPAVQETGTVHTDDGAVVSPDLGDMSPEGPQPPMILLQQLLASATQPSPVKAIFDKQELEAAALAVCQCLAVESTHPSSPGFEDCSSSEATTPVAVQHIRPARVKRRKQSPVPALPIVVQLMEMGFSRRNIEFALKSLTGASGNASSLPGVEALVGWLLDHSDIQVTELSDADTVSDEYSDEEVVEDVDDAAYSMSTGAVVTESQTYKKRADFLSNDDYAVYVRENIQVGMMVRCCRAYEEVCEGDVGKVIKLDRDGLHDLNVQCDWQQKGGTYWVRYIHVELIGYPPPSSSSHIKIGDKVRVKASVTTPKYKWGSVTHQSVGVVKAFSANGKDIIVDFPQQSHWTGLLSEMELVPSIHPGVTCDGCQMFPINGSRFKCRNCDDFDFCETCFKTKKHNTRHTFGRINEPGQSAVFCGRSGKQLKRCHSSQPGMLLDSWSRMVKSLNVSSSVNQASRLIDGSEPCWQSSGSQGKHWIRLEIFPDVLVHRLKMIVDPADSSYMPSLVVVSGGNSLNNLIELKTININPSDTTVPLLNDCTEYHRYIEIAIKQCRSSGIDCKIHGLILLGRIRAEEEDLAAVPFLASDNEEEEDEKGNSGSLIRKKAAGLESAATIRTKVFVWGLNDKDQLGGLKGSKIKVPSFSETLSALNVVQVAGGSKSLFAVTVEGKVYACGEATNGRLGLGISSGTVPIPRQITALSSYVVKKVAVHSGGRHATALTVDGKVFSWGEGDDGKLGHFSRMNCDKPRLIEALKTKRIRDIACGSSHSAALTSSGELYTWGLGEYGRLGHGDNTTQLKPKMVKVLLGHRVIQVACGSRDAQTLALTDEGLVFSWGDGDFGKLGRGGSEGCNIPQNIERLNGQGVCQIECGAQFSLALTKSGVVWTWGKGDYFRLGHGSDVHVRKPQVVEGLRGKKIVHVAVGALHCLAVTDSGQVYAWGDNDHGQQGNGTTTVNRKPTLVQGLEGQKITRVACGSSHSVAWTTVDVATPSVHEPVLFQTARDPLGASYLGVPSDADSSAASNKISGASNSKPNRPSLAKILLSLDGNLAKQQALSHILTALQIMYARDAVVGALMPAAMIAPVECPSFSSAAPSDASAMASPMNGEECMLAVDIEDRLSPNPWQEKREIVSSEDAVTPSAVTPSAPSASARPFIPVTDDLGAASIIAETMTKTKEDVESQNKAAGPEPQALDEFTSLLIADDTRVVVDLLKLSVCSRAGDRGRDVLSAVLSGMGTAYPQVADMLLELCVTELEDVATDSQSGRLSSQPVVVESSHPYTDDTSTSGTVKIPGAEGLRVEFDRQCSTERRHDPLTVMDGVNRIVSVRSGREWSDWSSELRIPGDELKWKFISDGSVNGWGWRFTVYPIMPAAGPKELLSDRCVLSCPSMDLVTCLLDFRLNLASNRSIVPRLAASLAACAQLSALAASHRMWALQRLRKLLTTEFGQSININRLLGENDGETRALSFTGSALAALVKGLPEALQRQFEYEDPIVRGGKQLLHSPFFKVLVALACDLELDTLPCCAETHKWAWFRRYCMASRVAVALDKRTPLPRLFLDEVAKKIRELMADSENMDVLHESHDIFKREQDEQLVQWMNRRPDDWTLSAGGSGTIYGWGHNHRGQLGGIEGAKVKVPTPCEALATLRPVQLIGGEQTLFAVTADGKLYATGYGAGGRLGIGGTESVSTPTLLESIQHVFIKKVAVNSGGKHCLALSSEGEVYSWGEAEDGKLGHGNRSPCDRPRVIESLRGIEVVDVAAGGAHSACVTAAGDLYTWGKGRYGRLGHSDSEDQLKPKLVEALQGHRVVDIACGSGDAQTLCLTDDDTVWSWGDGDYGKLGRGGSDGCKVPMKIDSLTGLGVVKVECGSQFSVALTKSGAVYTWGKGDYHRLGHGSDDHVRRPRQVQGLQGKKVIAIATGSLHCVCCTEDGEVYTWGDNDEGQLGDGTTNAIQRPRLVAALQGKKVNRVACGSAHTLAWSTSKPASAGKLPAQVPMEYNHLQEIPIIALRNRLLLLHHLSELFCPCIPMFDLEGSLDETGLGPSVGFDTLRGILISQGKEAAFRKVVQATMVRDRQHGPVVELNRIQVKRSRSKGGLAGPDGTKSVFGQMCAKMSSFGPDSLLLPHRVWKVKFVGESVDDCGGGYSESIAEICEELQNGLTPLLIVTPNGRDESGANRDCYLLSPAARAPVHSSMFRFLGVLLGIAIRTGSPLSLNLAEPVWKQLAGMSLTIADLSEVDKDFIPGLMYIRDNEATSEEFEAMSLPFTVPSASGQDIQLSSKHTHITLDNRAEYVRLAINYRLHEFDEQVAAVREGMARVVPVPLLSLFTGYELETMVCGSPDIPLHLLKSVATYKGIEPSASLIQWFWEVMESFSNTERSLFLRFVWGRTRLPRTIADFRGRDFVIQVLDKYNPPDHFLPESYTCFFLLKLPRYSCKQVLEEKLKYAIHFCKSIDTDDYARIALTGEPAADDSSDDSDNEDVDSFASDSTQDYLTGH
T3 sequence (P15559 whole entry): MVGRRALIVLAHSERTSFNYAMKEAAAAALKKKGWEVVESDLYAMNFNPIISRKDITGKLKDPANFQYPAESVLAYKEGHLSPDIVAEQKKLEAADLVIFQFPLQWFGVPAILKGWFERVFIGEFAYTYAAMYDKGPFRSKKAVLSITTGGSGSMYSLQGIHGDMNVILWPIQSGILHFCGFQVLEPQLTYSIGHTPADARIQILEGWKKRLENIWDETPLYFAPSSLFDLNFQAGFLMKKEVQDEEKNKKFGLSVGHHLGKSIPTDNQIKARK

Row | Structure (SMILES) | fold changes relative to vehicle control ([1]; captured protein RNF160, HeLa) | fold changes relative to vehicle control ([2]; protein HERC2, HeLa) | fold changes relative to vehicle control ([3]; HeLa, protein NQO1) | fold changes relative to vehicle control [4, 11] | fold changes relative to vehicle control ([5]; HeLa, protein PPP2R1A) | fold changes relative to vehicle control ([6]; HeLa, protein UQCRC1) | fold changes relative to vehicle control [7, 12] | fold changes relative to vehicle control ([8]; protein PSMB3, HeLa) | fold changes relative to vehicle control ([9]; HeLa, protein IMMT) | fold changes relative to vehicle control ([10]; captured protein ALG1, HeLa) | fold changes relative to vehicle control ([1]; HeLa, captured protein RNF160) | fold changes relative to vehicle control ([3]; protein NQO1, HeLa) | fold changes relative to vehicle control ([4]; HeLa, protein PRDX6) | fold changes relative to vehicle control ([6]; HeLa, captured protein UQCRC1) | fold changes relative to vehicle control ([7]; HeLa, protein S100A11) | fold changes relative to vehicle control ([8]; HeLa, protein PSMB3) | fold changes relative to vehicle control ([9]; HeLa, captured protein IMMT) | fold changes relative to vehicle control ([10]; HeLa, protein ALG1) | also measured
1 | Nc1nc2cccc(-c3ccccc3)c2n1Cc1ccc(Cl)c(Cl)c1 [compound 3] | 1.13 | 1.08 | 1.13 | 0.92 fold | 0.88 | 0.96 | 1.08 fold | 0.92 | 1.05 | 1.05 | – | – | – | – | – | – | – | – | –
2 | Nc1nc2[nH]cc(CCc3ccc(C(=O)N[C@@H](CCC(=O)O)C(=O)O)cc3)c2c(=O)[nH]1 [PTX, pemetrexed] | – | – | – | – | – | – | – | – | – | – | – | – | – | – | – | – | – | – | fold changes relative to vehicle control [1]: 1.09; fold changes relative to vehicle control [2]: 1; fold changes relative to vehicle control [3]: 0.92; fold changes relative to vehicle control [4]: 1.21; fold changes relative to vehicle control [5]: 0.87; fold changes relative to vehicle control [6]: 0.88; fold changes relative to vehicle control [7]: 1.29; fold changes relative to vehicle control [8]: 0.99; fold changes relative to vehicle control [9]: 1.01; fold changes relative to vehicle control [10]: 0.81
3 | Nc1nc2c(c(=O)[nH]1)N(C=O)C(CNc1ccc(C(=O)N[C@@H](CCC(=O)O)C(=O)O)cc1)CN2 (stereo partly shown) [LEU, leucovorin] | – | 1.09 | – | – | 0.97 | – | – | – | – | – | 1.1 | 1.12 | 1.05 | 0.99 | 1.32 | 1.13 | 0.97 | 0.85 | –
4 | CCCCCCOc1cccc(Cc2cnc(N)nc2N)c1 [compound 2] | 1.08 | 0.83 | 1.22 | 2.27 fold | 0.95 | 0.92 | 2.47 fold | 1.53 | 1.14 | 0.91 | – | – | – | – | – | – | – | – | –
5 | NCCOCCOCC(=O)Nc1nc2ncc(CNc3ccc(C(=O)NC(CCC(=O)O)C(=O)O)cc3)nc2c(=O)[nH]1 (stereo not shown) [compound 6] | – | 1.07 | – | – | 0.86 | – | – | – | – | – | 1.17 | 0.6 | 1.33 | 0.95 | 1.59 | 1.12 | 1.03 | 0.93 | –
6 | CCCCCCOc1ccc(Cc2cnc(N)nc2N)cc1 [compound 1] | 1.01 | 1 | 1.12 | 1.45 fold | 0.95 | 1.09 | 1.66 fold | 1.13 | 0.96 | 0.88 | – | – | – | – | – | – | – | – | –
7 | NCCCNc1ccc(C(=O)NC(CCC(=O)O)C(=O)O)cc1 (stereo not shown) [compound 7] | – | 1.09 | – | – | 0.95 | – | – | – | – | – | 1.17 | 2.36 | 1.01 | 0.99 | 1.2 | 0.92 | 1.09 | 0.99 | –
